# Experimental data as given in PMC8931498 (Frontiers in Pharmacology, 2022).
# Read-outs that look alike come from different tables or passages of the source.
# What was measured:
# human ABCG2 = test system: human ABCG2; design: method as in Tournier et al. (2010); settings: hABCG2-transfected HEK293 cells, flow cytometric assay; ref Tournier et al. (2010); cited from earlier work
# human ABCB1 = test system: human ABCB1; design: method as in Tournier et al. (2010); settings: hABCB1-transfected HEK293 cells, flow cytometric assay; ref Tournier et al. (2010); cited from earlier work
# [1] = Plasma pharmacokinetics over 2 h after oral ibogaine in wild-type, Abcg2-/- and Abcb1a/1b;Abcg2-/- mice; type: in vivo; settings: for Fold increase AUC0-2h: oral 10 mg/kg ibogaine; for Tmax / Cmax / AUC(0-t): mouse, plasma, po, 10 mg/kg; for AUC(0-t): read-out: AUC0-2h
# Description: (§1) In each experiment, six to seven mice were used per strain. […] To reduce variation in absorption upon oral administration, mice were fasted for 2–3 h before dosing. […] At either 2 or 8 h after dosing, mice were deeply anesthetized with isoflurane (3%), followed by cardiac puncture to collect blood (at least 600 μL) in Eppendorf tubes using heparin as an anticoagulant. The mice were then sacrificed by cervical dislocation, and tissues including the brain, liver (without gallbladder), kidneys, spleen, small intestine together with the fecal content (SIWC), heart, and subcutaneous inguinal white adipose tissue were collected and weighed. For the 2 h experiment, the gallbladder with content was also (separately) collected in an Eppendorf tube and weighed. Plasma was obtained from blood samples by centrifugation at 9,000 g for 6 min at 4 °C. Tissue homogenates (except gallbladder) were obtained using the Fast Prep-24 5G homogenizer (MP Biomedicals Inc., Santa Ana, CA, United States). Before homogenization, Bovine Serum Albumin (BSA, Fraction V) was dissolved at a concentration of 2% (w/v) in distilled water. Three mL of ice-cold 2% BSA were added to liver and SIWC; 2 ml to kidneys; 1 ml to brain, spleen, and heart; and 2–3 ml to the white adipose tissue (depending on the tissue weight). For the gallbladder, 150 μL of 2% BSA was added; then, the samples were centrifuged (9,000 x g, 4°C, 6 min), and only the supernatant was collected for analysis. Both plasma and tissue samples were kept at −70°C in amber-colored Eppendorf tubes until analysis.
# (§2) A volume of 50 µL human plasma sample, a 5-fold diluted mouse plasma sample (10 uL + 40 uL control human plasma), or 100 µL homogenized tissue sample were processed. […] To the 50 uL plasma samples, 20 uL of a working solution containing both internal standards at a concentration of 10 ng/ml in methanol (WIS10) was added. Sample pre-treatment involved protein precipitation with 150 uL of acetonitrile-methanol (1:1, v/v). For the tissue homogenates (100 uL sample aliquots), 40 uL of WIS10 was added, and 300 uL precipitation reagent as sample cleanup. After centrifuging the samples (10 min, 4°C, 15,000 x g), 100 µL of the supernatant was transferred to an amber-colored autosampler vial with insert. Then 100 µL of 4 mM ammonium formate pH 3.5 in water was added, and after vortex mixing, the extracts were injected (5 uL) onto a UPLC system (Acquity UPLC I-Class IVD system, Waters, Milford, MA, United States) equipped with an Acquity UPLC HSS T3 Column (150 × 2.1 mm ID, 1.8 µm). The tray temperature was set to 5 ± 3°C, and the analytical column was kept at 50°C. Gradient elution was applied using 4 mM ammonium formate pH 3.5 in water as eluent A and acetonitrile as eluent B. The flow rate was 500 μL/min, and the total runtime was 6 min. Detection was performed in the positive ion mode on a Quadrupole MS/MS detector with a Turbo Ion Spray Interface (QTRAP5500, Sciex, Framingham, MA, United States). The ionspray voltage was 2250 V, and the spray temperature was 700 °C. Gas settings, potentials, and collision energies were optimized by infusion of the analytes and by flow injection analysis.
# (§3) Pharmacokinetic parameters were calculated by non-compartmental methods using the Microsoft Excel menu-driven add-in program PKsolver ([Zhang et al., 2010]). The area under the plasma concentration-time curve (AUC) was calculated with the trapezoidal rule without extrapolating to infinity. The peak plasma concentration (Cmax) and the time to reach Cmax (Tmax) were estimated from the original data. […] GraphPad Prism 9 (GraphPad Software Inc., San Diego, CA, United States) was used to plot the data and to perform statistical analysis. To determine whether the most extreme value in a data set was a significant outlier from the rest, the Grubbs’s (or extreme studentized variate) test was applied (α = 0.05). All data were log-transformed before statistical analysis. […]
# [2] = design: method as in Mačiulaitis et al., 2008; settings: in 24 h in rats; ref Mačiulaitis et al., 2008; cited from earlier work
# [3] = Plasma pharmacokinetics over 2 h after oral ibogaine in wild-type, Oatp1a/1b-/-, Oatp1a/1b-/-;1B1tg and Oatp1a/1b-/-;1B3tg mice; type: in vivo; settings: for Fold increase AUC0-2h: oral 10 mg/kg ibogaine; for Cmax / Tmax / AUC(0-t): female, mouse, plasma, po, 10 mg/kg; for AUC(0-t): read-out: AUC0-2h
# Description: as §1, §2, §3
# [4] = design: method as in Luz and Mash, 2021; settings: ref Luz and Mash, 2021; cited from earlier work
# [5] = Plasma pharmacokinetics over 8 h after oral ibogaine in wild-type, Cyp3a-/- and Cyp3aXAV mice; type: in vivo; settings: female, mouse, 10 mg/kg; for AUC(0-t): read-out: AUC0-8h
# Description: as §1, §2, §3
# [6] = Tissue distribution 2 h after oral ibogaine in wild-type, Abcg2-/- and Abcb1a/1b;Abcg2-/- mice; type: in vivo; settings: for Kp at 2 h: mouse, po, 10 mg/kg; for fold decrease in total amount (% of dose) in SIWC corrected for plasma AUC over 2 h: small intestine with fecal content, oral 10 mg/kg ibogaine
# Description: as §1, §2, §3
# [7] = Tissue accumulation 2 h after oral ibogaine in wild-type and Oatp1a/1b-deficient mouse strains; type: in vivo, mice; settings: for fold reduction in liver accumulation: tissue concentration relative to plasma AUC0-2h, oral 10 mg/kg ibogaine
# Description: as §1
# A volume of 50 µL human plasma sample, a 5-fold diluted mouse plasma sample (10 uL + 40 uL control human plasma), or 100 µL homogenized tissue sample were processed. […] To the 50 uL plasma samples, 20 uL of a working solution containing both internal standards at a concentration of 10 ng/ml in methanol (WIS10) was added. Sample pre-treatment involved protein precipitation with 150 uL of acetonitrile-methanol (1:1, v/v). For the tissue homogenates (100 uL sample aliquots), 40 uL of WIS10 was added, and 300 uL precipitation reagent as sample cleanup. After centrifuging the samples (10 min, 4°C, 15,000 x g), 100 µL of the supernatant was transferred to an amber-colored autosampler vial with insert. […]
# Pharmacokinetic parameters were calculated by non-compartmental methods using the Microsoft Excel menu-driven add-in program PKsolver ([Zhang et al., 2010]). The area under the plasma concentration-time curve (AUC) was calculated with the trapezoidal rule without extrapolating to infinity. […]
# [8] = Abcb1a/1b;Abcg2-/- mice vs wild-type
# [9] = Oatp1a/1b-/-;1B1tg mice vs wild-type
# [10] = Oatp1a/1b-/-;1B3tg mice vs wild-type
# [11] = wild-type, inguinal white adipose tissue, read-out: adipose tissue-to-plasma distribution ratio
compound,measurement,setting,value
ibogaine,inhibition of human ABCG2,human ABCG2,significantly inhibited in a concentration-dependent manner
same,inhibition of human ABCB1,human ABCB1,significantly inhibited in a concentration-dependent manner
"CCC1CC2CC3c4[nH]c5ccc(O)cc5c4CCN(C2)C13 (centres unmarked) [Noribogaine, 12-hydroxyibogamine]",Fold increase AUC0-2h,[1]; [8],1.2
same,Tmax,[1]; Abcb1a/1b;Abcg2-/-,0.25 h
same,Fold increase AUC0-2h,[1]; Abcg2-/- mice vs wild-type,1.1
same,Tmax,[1]; Abcg2-/-,0.25 h
same,Cmax,"[1]; female, Abcb1a/1b;Abcg2-/-",276 ± 98 ng/mL
same,AUC(0-t),"[1]; female, Abcb1a/1b;Abcg2-/-",419 ± 126 ng·h/mL
same,Cmax,"[1]; female, Abcg2-/-",233 ± 61 ng/mL
same,AUC(0-t),"[1]; female, Abcg2-/-",381 ± 108 ng·h/mL
same,Cmax,"[1]; female, wild-type",208 ± 70 ng/mL
same,Tmax,"[1]; female, wild-type",0.5 h
same,AUC(0-t),"[1]; female, wild-type",339 ± 107 ng·h/mL
same,Fold increase AUC0-2h,[1]; wild-type mice (reference),1.0
same,"excreted via urine and feces, % of the administered dose",[2],60–70%
same,Fold increase AUC0-2h,[3]; Oatp1a/1b-/- mice vs wild-type,1.4
same,Fold increase AUC0-2h,[3]; [9],1.7
same,Fold increase AUC0-2h,[3]; [10],1.5
same,Cmax,[3]; Oatp1a/1b-/-,290 ± 73 ng/mL
same,Tmax,[3]; Oatp1a/1b-/-,0.5 h
same,AUC(0-t),[3]; Oatp1a/1b-/-,458 ± 110 ng·h/mL
same,Cmax,[3]; Oatp1a/1b-/-;1B1tg,417 ± 95 ng/mL
same,Tmax,[3]; Oatp1a/1b-/-;1B1tg,0.25 h
same,AUC(0-t),[3]; Oatp1a/1b-/-;1B1tg,578 ± 86 ng·h/mL
same,Cmax,[3]; Oatp1a/1b-/-;1B3tg,411 ± 107 ng/mL
same,Tmax,[3]; Oatp1a/1b-/-;1B3tg,0.25 h
same,AUC(0-t),[3]; Oatp1a/1b-/-;1B3tg,519 ± 100 ng·h/mL
same,Cmax,[3]; wild-type,209 ± 70 ng/mL
same,Tmax,[3]; wild-type,0.5 h
same,AUC(0-t),[3]; wild-type,339 ± 107 ng·h/mL
same,Fold increase AUC0-2h,[3]; wild-type mice (reference),1.0
same,half-life in plasma,[4],24 to 30 h
same,Cmax,[5]; Cyp3a-/-,280 ± 75 ng/mL
same,Tmax,[5]; Cyp3a-/-,0.5 h
same,AUC(0-t),[5]; Cyp3a-/-,1070 ± 320 ng·h/mL
same,Cmax,[5]; Cyp3aXAV,328 ± 75 ng/mL
same,Tmax,[5]; Cyp3aXAV,0.5 h
same,AUC(0-t),[5]; Cyp3aXAV,1400 ± 320 ng·h/mL
same,Cmax,[5]; wild-type,217 ± 37 ng/mL
same,Tmax,[5]; wild-type,0.5 h
same,AUC(0-t),[5]; wild-type,655 ± 220 ng·h/mL
same,Kp at 2 h,"[6]; Abcb1a/1b;Abcg2-/-, brain, read-out: brain-to-plasma ratio",8.3
same,"liver-to-plasma ratios, times higher than gallbladder-to-plasma ratios","[6]; WT, Abcg2-/- and Abcb1a/1b;Abcg2-/- mice, 2 h after oral 10 mg/kg ibogaine",at least 3 times
same,"absolute brain concentrations, fold higher than those of ibogaine","[6]; wild-type mice, both at 2 and 8 h after oral 10 mg/kg ibogaine",≥ 100 fold
same,Kp at 2 h,"[6]; wild-type, brain, read-out: brain-to-plasma ratio",7.2
same,Kp at 2 h,[6]; [11],2.8
same,fold reduction in liver accumulation,[7]; Oatp1a/1b-/- mice compared to WT,1.6 fold
same,fold reduction in liver accumulation,[7]; Oatp1a/1b-/-;1B1tg mice compared to WT,1.8 fold
same,fold reduction in liver accumulation,[7]; Oatp1a/1b-/-;1B3tg mice compared to WT,2.1 fold
"CCC1CC2CC3c4[nH]c5ccc(OC6OC(C(=O)O)C(O)C(O)C6O)cc5c4CCN(C2)C13 (centres unmarked) [Noribogaine glucuronide, noribogaine glucuronide]",Fold increase AUC0-2h,[1]; [8],1.5
same,Tmax,[1]; Abcb1a/1b;Abcg2-/-,2 h
same,Fold increase AUC0-2h,[1]; Abcg2-/- mice vs wild-type,1.1
same,Tmax,[1]; Abcg2-/-,2 h
same,Cmax,"[1]; female, Abcb1a/1b;Abcg2-/-",156 ± 31 ng/mL
same,AUC(0-t),"[1]; female, Abcb1a/1b;Abcg2-/-",240 ± 46 ng·h/mL
same,Cmax,"[1]; female, Abcg2-/-",122 ± 27 ng/mL
same,AUC(0-t),"[1]; female, Abcg2-/-",184 ± 32 ng·h/mL
same,Cmax,"[1]; female, wild-type",125 ± 30 ng/mL
same,Tmax,"[1]; female, wild-type",2 h
same,AUC(0-t),"[1]; female, wild-type",164 ± 12 ng·h/mL
same,Fold increase AUC0-2h,[1]; wild-type mice (reference),1.0
same,Fold increase AUC0-2h,[3]; Oatp1a/1b-/- mice vs wild-type,1.5
same,Fold increase AUC0-2h,[3]; [9],1.8
same,Fold increase AUC0-2h,[3]; [10],1.4
same,Cmax,[3]; Oatp1a/1b-/-,155 ± 20 ng/mL
same,Tmax,[3]; Oatp1a/1b-/-,2 h
same,AUC(0-t),[3]; Oatp1a/1b-/-,244 ± 30 ng·h/mL
same,Cmax,[3]; Oatp1a/1b-/-;1B1tg,199 ± 59 ng/mL
same,Tmax,[3]; Oatp1a/1b-/-;1B1tg,1 h
same,AUC(0-t),[3]; Oatp1a/1b-/-;1B1tg,294 ± 65 ng·h/mL
same,Cmax,[3]; Oatp1a/1b-/-;1B3tg,162 ± 25 ng/mL
same,Tmax,[3]; Oatp1a/1b-/-;1B3tg,1 h
same,AUC(0-t),[3]; Oatp1a/1b-/-;1B3tg,236 ± 24 ng·h/mL
same,Cmax,[3]; wild-type,125 ± 30 ng/mL
same,Tmax,[3]; wild-type,2 h
same,AUC(0-t),[3]; wild-type,164 ± 12 ng·h/mL
same,Fold increase AUC0-2h,[3]; wild-type mice (reference),1.0
same,Cmax,[5]; Cyp3a-/-,114 ± 24 ng/mL
same,Tmax,[5]; Cyp3a-/-,1 h
same,AUC(0-t),[5]; Cyp3a-/-,422 ± 110 ng·h/mL
same,Cmax,[5]; Cyp3aXAV,123 ± 28 ng/mL
same,Tmax,[5]; Cyp3aXAV,1 h
same,AUC(0-t),[5]; Cyp3aXAV,536 ± 117 ng·h/mL
same,Cmax,[5]; wild-type,70 ± 13.6 ng/mL
same,Tmax,[5]; wild-type,1 h
same,AUC(0-t),[5]; wild-type,219 ± 50 ng·h/mL
same,fold decrease in liver-to-plasma ratio,"[6]; Abcb1a/1b;Abcg2-/- mice compared to WT, 2 h after oral 10 mg/kg ibogaine",1.7 fold
same,fold decrease in total amount (% of dose) in SIWC corrected for plasma AUC over 2 h,[6]; Abcb1a/1b;Abcg2-/- mice compared to WT,2.1 fold
same,"gallbladder-to-plasma ratio, fold lower than in WT","[6]; Abcb1a/1b;Abcg2-/- vs WT mice, not statistically significant, 2 h after oral 10 mg/kg ibogaine",more than 2 fold
same,fold decrease in total amount (% of dose) in SIWC corrected for plasma AUC over 2 h,[6]; Abcg2-/- mice compared to WT,1.5 fold
same,Kp at 2 h,[6]; [11],0.058
same,"gallbladder-to-plasma ratio, fold higher than liver-to-plasma ratio","[7]; WT mice, 2 h after oral 10 mg/kg ibogaine",about 10 fold
